Measurements published in patent EP3860956B1, “PROCESS FOR MANUFACTURING N-ALKYL-DIPHOSPHONATE AMINO AMINOACIDS” (Italmatch Chemicals S.p.A., priority 2018, dated 2020).
Where two headings read alike, the source gives them in different places.

Columns and labels:
[1] = Barium sulphate scale inhibition; conditions: minimum phosphonate concentration to inhibit 100% BaSO4 scale; 50/50 North Sea water/Formation water, pH 6, 22 hours at 90 °C, ICP-MS
Experimental: To evaluate the efficiency of both scale inhibitors according to the present invention and comparative ones in preventing barium scale inhibition in oil field scaling conditions, the present test is carried out determining the amount of BaSO4 that has precipitated after 22 hours at 90 °C, in a 50/50 mixture of synthetic North Sea water
The amount of soluble Ba ions is determined by inductively coupled plasma mass spectrometry (ICP-MS).
The present test is carried out as follows: • synthetic North Sea and Formation waters are prepared at pH 6. These water solutions are preheated at 90 °C before starting the test. An acetic acid/sodium acetate buffer is prepared and added to the North Sea water in order to give the required pH; • - 15, 30, 50, 70 and 100 ppm of scale inhibitor active phosphonic acid is added to a glass bottle; • - 50 ml of North Sea water is added to this glass bottle while stirring. 50 ml of Formation water is then added to this glass bottle; • - one blank solution is prepared, by mixing 50 ml of North Sea water with 50 ml of Formation water; • - sample bottles were put in an oven for 22 hours at 90 °C; • - after 22 hours, 3 ml of each test solution was taken from the surface, was filtered through a 0.45 µm Millipore filter and added to a stabilizing solution.
The stabilized samples were analyzed by ICP-MS for Ba.
Ba scale inhibition stands for the minimum phosphonate concentration to inhibit 100% BaSO4 scale.
Note that the 100% phosphonate efficiencies for BaSO4 scale inhibition are calculated as follows: % Scale inhibition = (V1−V0/V2−V0) × 100 [formula] wherein V0 = ppm Ba found in the blank solution; V1 = ppm Ba found in the solution with the scale inhibitor; and V2 = ppm Ba present in the Formation water.

[2] = Brine and sea water compatibility test (Ca tolerance); format: physicochemical; conditions: synthetic North Sea water pH 5.5, 90 °C, 24 hours
Experimental: Scale inhibitors, especially if they have anionic moieties, may form complexes and precipitate with hardness salts, for example calcium, before they can fulfill their dispersing and chelating functions. Compatibility tests are carried out to check if complexation happens or not. If compatibility is poor, not only precipitation occurs, but also overall scale formation becomes faster.

[3] = Thermal stability test in synthetic North Sea water; format: physicochemical; conditions: 1% active acid in synthetic North Sea water, pH 5.5, 140 °C, one week, 31P NMR; percentage by weight
Experimental: The test is carried out as follows: an aqueous solution containing 20% of scale inhibitor active acid at pH 5.5 (solution 1) is prepared. After that, synthetic North Sea water having a pH of 5.5 (solution 2) is prepared. A 1% scale inhibitor active acid sample is prepared by mixing 1 g of solution 1 with 19 g of solution 2. The so prepared sample is placed in a closed pressure resistant tube and kept in an oven at minimum 140 °C for one week. Finally, after one week, the sample is analyzed by means of 31P NMR spectroscopy.

[4] = after 28 days; 2.0 ppm of pure active solid or 5.5 ppm as commercial product; previous study; cited from earlier work
[5] = Calcium carbonate scale inhibition; conditions: 2 ppm active phosphonic acid; 240 ppm Ca2+, 732 ppm HCO3-, pH 8.7 buffer, 50 °C, 22 hours
Experimental: To evaluate the efficiency of both scale inhibitors according to the present invention and comparative ones in preventing calcium carbonate scale in industrial water treatment conditions, the present test is carried out determining the amount of CaCO3 that has precipitated after 22 hours at 50 °C in a 50/50 mixture of cationic and anionic waters with the test phosphonates at three different concentrations. The amount of soluble Ca ions is analyzed by titration. […]
Put the sample bottles in an oven for 22 hours at 50 °C. […] The phosphonate efficiency as CaCO3 scale inhibition is then calculated using the equation: % CaCO3 inhibition = (Cat−Cab) × 100)÷(Cai−Cab) [formula] wherein Cat = calcium remaining in solution of the t sample, where the dilution with HCl has been corrected (Cat=(Caf)×Wta/Wtsam); Cab = Calcium remaining in the blank (i.e. glass bottle wherein no phosphonate was added; under these condition corresponds to minimum of 80% of calcium precipitated as CacO3); and Cai = Total calcium present in a reference t sample (i.e. a sample t in which the hardness brine has simply been diluted with water to get the same final volume).

[6] = Biodegradability, OECD 306 closed bottle marine test; conditions: after 14 days; 2 ppm of pure active solid
Experimental: Biodegradation tests are performed using the standard "closed bottle" marine test methods in accordance with OECD Guidelines 306. OECD306 is a test that measure biodegradation indirectly through the determination of the amount of dissolved oxygen in the medium. The measurement obtained are used to estimate the biodegradability (BOD) during the process.
The measured value of the BOD need to be corrected by dividing either with an experimental value of COD or a ThOD and multiply by 100% to get the biodegradability value.
OECD306 closed bottle test for was performed with a similar test set-up.

% CaCO3 inhibition [5] [% @ 2 ppm]	Biodegradability [6] [%]	SMILES	100% Ba scale inhibition [1]	Ca Tolerance , visual observation ([2]; 100 ppm active acid)	Ca Tolerance , visual observation ([2]; 1000 ppm active acid)	Ca Tolerance , visual observation ([2]; 10000 ppm active acid)	Ca Tolerance , visual observation ([2]; 50000 ppm active acid)	Decomposition (%) [3] [%]	Biodegradability [4] [%]
–	–	O=P(O)(O)CN(CCN(CP(=O)(O)O)CP(=O)(O)O)CCN(CP(=O)(O)O)CP(=O)(O)O [DTMPA, [[(phosphonomethyl)imino]bis [2,1-ethanediylnitrilobis (methylene)]] tetrakis-phosphonic acid]	15 ppm	clear	turbid	turbid	clear	23.6	–
–	–	O=P(O)(O)CN(CCO)CP(=O)(O)O [HEMPA, hydroxyethylamino-di(methylene phosphoric acid)]	–	–	–	–	–	19.0	–
–	–	O=P(O)(O)CN(CP(=O)(O)O)CP(=O)(O)O [ATMP, aminotris(methylenephosphonic acid)]	–	–	–	–	–	12.5	–
–	–	O=C(O)CCCCCN(CP(=O)(O)O)CP(=O)(O)O	(no inhibition on Ba)	–	–	–	–	–	77.15
–	–	CC(O)(P(=O)(O)O)P(=O)(O)O [HEDP, 1-hydroxy ethylidene-1,1-diphosphonic acid]	30ppm	clear	turbid	turbid	clear	2.3	–
94	31.5	O=C(O)CCCCCNC(P(=O)(O)O)P(=O)(O)O [Compound of Formula II, 6-((diphosphonomethyl)amino)hexanoic acid]	50 ppm	clear	turbid	turbid	clear	3.0	–
